The values below come from patent US20130252930A1 (BIOMARIN PHARMACEUTICAL INC., priority 2010, published 2013).

One experiment concerns the target T1, CYP17 (human testicular microsome) (Homo sapiens, UniProt P05093).
T1 construct: using microsomal fraction from human testis (Celsis Cat #S00110) as the enzyme source; tissue Celsis S00110; host or cells: human testis microsomal fraction
T1 sequence (P05093 1-508): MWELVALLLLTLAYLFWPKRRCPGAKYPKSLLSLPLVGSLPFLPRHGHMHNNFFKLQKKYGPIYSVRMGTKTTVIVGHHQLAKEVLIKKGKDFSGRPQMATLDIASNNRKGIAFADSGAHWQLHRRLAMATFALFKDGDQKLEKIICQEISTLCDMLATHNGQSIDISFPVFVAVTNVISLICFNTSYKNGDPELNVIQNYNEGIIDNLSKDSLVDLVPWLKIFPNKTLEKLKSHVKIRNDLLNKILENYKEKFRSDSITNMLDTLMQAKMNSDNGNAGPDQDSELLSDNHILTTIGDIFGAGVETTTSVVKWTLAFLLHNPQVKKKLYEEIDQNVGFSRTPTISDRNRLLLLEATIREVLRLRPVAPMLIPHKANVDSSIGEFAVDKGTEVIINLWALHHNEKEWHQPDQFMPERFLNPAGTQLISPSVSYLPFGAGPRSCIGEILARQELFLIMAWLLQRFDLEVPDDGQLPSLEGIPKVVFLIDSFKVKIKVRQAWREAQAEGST
Kind of experiment: CYP17 enzymatic assay (% inhibition at 1 nM) (Biological Example 12). The settings on record: compound at 1 nM, read-out: Biological Example No. 12: CYP17 enzymatic assay % inhibition at 1 nM. It is filed as biochemical.
As a reminder, the inhibition is the percentage by which the read-out fell short of the control. With `CC1C(O)CC[C@@]2(C)C1CCC1C2CC[C@]2(C)C(c3cncc(F)c3)=CCC12` (stereo partly drawn) [Compound 305, (10R,13S)-17-(5-fluoropyridin-3-yl)-4,10,13-trimethyl-2,3,4,5,6,7,8,9,10,11,12,13,14,15-tetradecahydro-1H-cyclopenta[a]phenanthren-3-ol], the inhibition at 0.001 µM was under 10%.

For `CC1C(O)CC[C@@]2(C)C1CCC1C2CC[C@]2(C)C(c3cncc(C(F)F)c3)=CCC12` (stereo partly drawn) [Compound 306, (10R,13S)-17-(5-(difluoromethyl)pyridin-3-yl)-4,10,13-trimethyl-2,3,4,5,6,7,8,9,10,11,12,13,14,15-tetradecahydro-1H-cyclopenta[a]phenanthren-3-ol], the inhibition at 0.001 µM is under 10%.

For `C[C@H]1C2CCC3C(CC[C@]4(C)C(c5cncc(C(F)F)c5)=CCC34)[C@@]2(C)CC[C@@H]1O` (stereo partly drawn) [Compound 307, (3S,4S,10R,13S)-17-(5-(difluoromethyl)pyridin-3-yl)-4,10,13-trimethyl-2,3,4,5,6,7,8,9,10,11,12,13,14,15-tetradecahydro-1H-cyclopenta[a]phenanthren-3-ol], the inhibition at 0.001 µM was in the range of 10 to 50%.

As for `C[C@H]1C2CCC3C(CC[C@]4(C)C(c5cncc(C(F)F)c5)=CCC34)[C@@]2(C)CC[C@H]1O` (stereo partly drawn) [Compound 308, (3R,4S,10R,13S)-17-(5-(difluoromethyl)pyridin-3-yl)-4,10,13-trimethyl-2,3,4,5,6,7,8,9,10,11,12,13,14,15-tetradecahydro-1H-cyclopenta[a]phenanthren-3-ol], the inhibition at 0.001 µM was under 10%.

On to `CC1=C2CCC3C(CC[C@]4(C)C(c5cccnc5)=CCC34)[C@@]2(C)CC/C1=N\O` (stereo partly drawn) [Compound 364, (10R,13S,E)-4,10,13-trimethyl-17-(pyridin-3-yl)-6,7,8,9,10,11,12,13,14,15-decahydro-1H-cyclopenta[a]phenanthren-3(2H)-one oxime], for which the inhibition at 0.001 µM fell in the range of 10 to 50%.

`C[C@]12CC(O)CC1CCC1C2CC[C@]2(C)C(c3cncc(Cl)c3)=CCC12` (stereo partly drawn) [Compound 397, (3aS,5aS)-6-(5-chloropyridin-3-yl)-3a,5a-dimethyl-1,2,3,3a,3b,4,5,5a,8,8a,8b,9,10,10a-tetradecahydrodicyclopenta[a,f]naphthalen-2-ol]: the inhibition at 0.001 µM was in the range of 10 to 50%.

Regarding `C[C@]12CC[C@H]3[C@@H](CCC45CC4C(O)CC[C@]35C)[C@@H]1CC=C2c1cncc(F)c1` (stereo partly drawn) [Compound 412, (4aR,6aS)-7-(5-fluoropyridin-3-yl)-4a,6a-dimethyl-1a,2,3,4,4a,4b,5,6,6a,9,9a,9b,10,11-tetradecahydro-1H-cyclopenta[a]cyclopropa[j]phenanthren-2-ol], the inhibition at 0.001 µM is 10 to 50%.

In the case of `CC(=O)NC1CC[C@@]2(C)C(CCC3C2CC[C@]2(C)C(c4cccnc4)=CCC32)C1C` (stereo partly drawn) [Compound 413, N-((10R,13S)-4,10,13-trimethyl-17-(pyridin-3-yl)-2,3,4,5,6,7,8,9,10,11,12,13,14,15-tetradecahydro-1H-cyclopenta[a]phenanthren-3-yl)acetamide], the inhibition at 0.001 µM was under 10%.

Take `CCNC(=O)NC1CC[C@@]2(C)C(CCC3C2CC[C@]2(C)C(c4cccnc4)=CCC32)C1C` (stereo partly drawn) [Compound 414, 1-ethyl-3-((10R,13S)-4,10,13-trimethyl-17-(pyridin-3-yl)-2,3,4,5,6,7,8,9,10,11,12,13,14,15-tetradecahydro-1H-cyclopenta[a]phenanthren-3-yl)urea]: the inhibition at 0.001 µM is under 10%.

Regarding `CC1C[C@@]2(C)C(CC[C@@H]3[C@@H]2CC[C@]2(C)C(c4cccnc4)=CC[C@@H]32)C(C)C1=O` (stereo partly drawn) [Compound 415, (10R,13S)-2,4,10,13-tetramethyl-17-(pyridin-3-yl)-4,5,6,7,8,9,10,11,12,13,14,15-dodecahydro-1H-cyclopenta[a]phenanthren-3(2H)-one], the inhibition at 0.001 µM was under 10%.

Turning to `CC1C[C@@]2(C)C(CC[C@@H]3[C@@H]2CC[C@]2(C)C(c4cccnc4)=CC[C@@H]32)C(C)C1O` (stereo partly drawn) [Compound 416, (10R,13S)-2,4,10,13-tetramethyl-17-(pyridin-3-yl)-2,3,4,5,6,7,8,9,10,11,12,13,14,15-tetradecahydro-1H-cyclopenta[a]phenanthren-3-ol], the inhibition at 0.001 µM lay within 10 to 50%.

Turning to `CC1(O)C=C2CC[C@@H]3[C@H](CC[C@]4(C)C(c5cccnc5)=CC[C@@H]34)[C@@]2(C)CC1` (stereo partly drawn) [Compound 422, (10R,13S)-3,10,13-trimethyl-17-(pyridin-3-yl)-2,3,6,7,8,9,10,11,12,13,14,15-dodecahydro-1H-cyclopenta[a]phenanthren-3-ol], the inhibition at 0.001 µM lay within 10 to 50%.

`CC1C[C@@H]2[C@H](CC[C@]3(C)C(c4cccnc4)=CC[C@@H]23)[C@@]2(C)CCC(C)(O)C=C12` (stereo partly drawn) [Compound 423, (10R,13S)-3,6,10,13-tetramethyl-17-(pyridin-3-yl)-2,3,6,7,8,9,10,11,12,13,14,15-dodecahydro-1H-cyclopenta[a]phenanthren-3-ol]: the inhibition at 0.001 µM was 10 to 50%.

In the case of `CC1CC2C(CC[C@]3(C)C(c4cccnc4)=CCC23)[C@@]2(C)CC[C@@](C)(O)CC12` (stereo partly drawn) [Compound 424, (3R,10S,13S)-3,6,10,13-tetramethyl-17-(pyridin-3-yl)-2,3,4,5,6,7,8,9,10,11,12,13,14,15-tetradecahydro-1H-cyclopenta[a]phenanthren-3-ol], the inhibition at 0.001 µM fell in the range of 10 to 50%.

With `CC1CC2C(CC[C@]3(C)C(c4cccnc4)=CCC23)[C@@]2(C)CC[C@](C)(O)CC12` (stereo partly drawn) [Compound 425, (3S,10S,13S)-3,6,10,13-tetramethyl-17-(pyridin-3-yl)-2,3,4,5,6,7,8,9,10,11,12,13,14,15-tetradecahydro-1H-cyclopenta[a]phenanthren-3-ol], the inhibition at 0.001 µM fell in the range of 10 to 50%.

For the compound `CN1C(=O)CC[C@@]2(C)C1=CCC1C2CC[C@]2(C)C(c3cncc(C(F)F)c3)=CCC12` (stereo partly drawn) [Compound 429, (4aR,6aS)-7-(5-(difluoromethyl)pyridin-3-yl)-1,4a,6a-trimethyl-4,4a,4b,5,6,6a,9,9a,9b,10-decahydro-1H-indeno[5,4-f]quinolin-2(3H)-one], the inhibition at 0.001 µM is under 10%.

On to `CN1C(=O)CC[C@@]2(C)C1=CC[C@@H]1[C@@H]2CC[C@]2(C)C(c3cnccc3F)=CC[C@@H]12` [Compound 430, (4aR,6aS)-7-(4-fluoropyridin-3-yl)-1,4a,6a-trimethyl-4,4a,4b,5,6,6a,9,9a,9b,10-decahydro-1H-indeno[5,4-f]quinolin-2(3H)-one], for which the inhibition at 0.001 µM was 10 to 50%.

On to `C[C@]12CCC(O)(CCCO)CC1CC[C@@H]1[C@@H]2CC[C@]2(C)C(c3cccnc3)=CC[C@@H]12` (stereo partly drawn) [Compound 440, (10S,13S)-3-(3-hydroxypropyl)-10,13-dimethyl-17-(pyridin-3-yl)-2,3,4,5,6,7,8,9,10,11,12,13,14,15-tetradecahydro-1H-cyclopenta[a]phenanthren-3-ol], for which the inhibition at 0.001 µM fell in the range of 10 to 50%.

Staying with this experiment, now noted: compound at 1 nM, read-out: CYP17 enzymatic assay % inhibition at 1 nM (Biological Example No. 12).
As to `C[C@]12CCC3C(CC4OC45C[C@@H](O)CC[C@]35C)C1=CC=C2c1cccnc1` (stereo partly drawn) [Compound 439, (3S,9aS,11bR)-9a,11b-dimethyl-9-(pyridin-3-yl)-1,2,3,4,5a,6,6a,9a,10,11,11a,11b-dodecahydrocyclopenta[1,2]phenanthro[8a,9-b]oxiren-3-ol], the inhibition at 0.001 µM was over 50%.

For the compound `COC1CC[C@@]2(C)C(=CCC3C2CC[C@]2(C)C(c4cccnc4)=CCC32)C1` (stereo partly drawn) [Compound 453, 3-((10R,13S)-3-methoxy-10,13-dimethyl-2,3,4,7,8,9,10,11,12,13,14,15-dodecahydro-1H-cyclopenta[a]phenanthren-17-yl)pyridine], the inhibition at 0.001 µM was under 10%.

For `COC1CC[C@@]2(C)C(=CCC3C2CC[C@]2(C)C(c4cncc(C)c4)=CCC32)C1` (stereo partly drawn) [Compound 454, 3-((10R,13S)-3-methoxy-10,13-dimethyl-2,3,4,7,8,9,10,11,12,13,14,15-dodecahydro-1H-cyclopenta[a]phenanthren-17-yl)-5-methylpyridine], the inhibition at 0.001 µM was under 10%.

As for `CCc1cncc(C2=CC[C@H]3[C@@H]4CC[C@H]5C[C@@H](OC)CC[C@]5(C)[C@H]4CC[C@]23C)c1` [Compound 455, 3-ethyl-5-((3S,5S,8R,9S,10S,13S,14S)-3-methoxy-10,13-dimethyl-2,3,4,5,6,7,8,9,10,11,12,13,14,15-tetradecahydro-1H-cyclopenta[a]phenanthren-17-yl)pyridine], the inhibition at 0.001 µM was 10 to 50%.

The same experiment, now with this note: test compound at 1 nM, read-out: CYP17 enzymatic assay percent inhibition at 1 nM (Biological Example No. 12).
With `CC1(O)CC2CC[C@@H]3[C@H](CC[C@]4(C)C(c5cccnc5)=CC[C@@H]34)[C@@]2(C)C1` (stereo partly drawn) [Compound 400, (3aS,5aS)-2,3a,5a-trimethyl-6-(pyridin-3-yl)-1,2,3,3a,3b,4,5,5a,8,8a,8b,9,10,10a-tetradecahydrodicyclopenta[a,f]naphthalen-2-ol], the inhibition at 0.001 µM is 10 to 50%.

With `C[C@]12CC(F)(F)CC1CCC1C2CC[C@]2(C)C(c3cccnc3)=CCC12` (stereo partly drawn) [Compound 407, 3-((8aS,10aS)-7,7-difluoro-8a,10a-dimethyl-3,3a,3b,4,5,5a,6,7,8,8a,8b,9,10,10a-tetradecahydrodicyclopenta[a,f]naphthalen-1-yl)pyridine], the inhibition at 0.001 µM is 10 to 50%.
